Where “and” joins values, the source holds several entries; their conditions need not be identical. Equal entries are not always repeated.
Tests used:
[1] = system: retinal ganglion cells (RGCs); experiment: Ex vivo pressure-loaded whole mounted retinas, NeuN-positive RGC survival; type: cell-based, rat; conditions: 75 mmHg, 1 μM; for RGC Survival (number of NeuN-positive cells), individual areas 1-5: single values
Protocol: Rat ex vivo Eyecup Preparation—Rat ex vivo eyecups were prepared from 28-32 day old male Sprague-Dawley rats (Charles River Laboratories International Inc., Wilmington, MA). The anterior half of the enucleated eyes was carefully removed to make eyecup preparations. Eyecups were placed at the bottom of a 100 ml glass beaker filled with aCSF (artificial cerebrospinal fluid) containing (in mM): 124 NaCl, 5 KCl, 2 MgSO4, 2 CaCl2, 1.25 NaH2PO4, 22 NaHCO3, and 10 glucose, and incubated at 30° C. for 24 hours using a closed pressure-loading system (FIG. 1C). pH was maintained at 7.35 to 7.40. In the closed-pressure system, a glass beaker with the eyecup was placed at the bottom of an acrylic pressure chamber (2,000 ml volume). A 95% O2-5% CO2 gas mixture was delivered through disposable plastic tubing with an infusion valve and a control dial on the lid of the pressure chamber and an air filter (Cat #SLGP033RS, Merck Millipore, Billerica, MA). The plastic tubing delivering the gas terminated 1 cm above the bottom of the beaker.
Acutely prepared eyecups were incubated in gassed aCSF for at least 1 h at 30° C. before pressure loading. In some experiments, AlloP (1 μM), ent-AlloP (1 μM), and 3-MA (10 mM) were dissolved in aCSF at the time of experiment and administered by bath perfusion. Eyecup preparations were treated with these drugs for 1 h at 30° C. before pressure loading. For pressure loading, the 95% O2-5% CO2 gas mixture was infused until the pressure reading given by a manometer reached the appropriate level. The pressure was then locked by adjusting the control dial of the effusion valve, and monitored continuously for 24 h at 30° C.
Preparation of whole mounted retinas and immunostaining—The retina was carefully detached from the eye by making cuts along the ora serrata and optic nerve. […] Each quadrant was analyzed using a 1 mm^2 frame, and counted using Image-Pro Plus software. […] RGC counts were analyzed using Image-Pro Plus software. NeuN positive RGCs were determined as the measurement of 5 different areas from three eyes per experimental condition.

optic nerve axons = experiment: Rat in vivo OHT model, density of optic nerve axons; conditions: OHT eyes, intravitreal, 3 weeks after microbead injection; single values
Protocol: Example 7. Rat in vivo OHT model induced by intracameral injection of microbeads—For induction of ocular hypertension (OHT) in vivo, sterile 6 μm polystyrene microbeads were injected into the anterior chamber of the left eye of each animal using a single-step, sclero-corneal tunnel approach with a 35G nanoneedle (FIG. 4A). […] After stabilization of elevated IOP, animals were randomly divided into 3 groups (non-treated OHT, AlloP injection, and ent-AlloP injection). AlloP and ent-AlloP were administered as a one-time intravitreal injection one week following bead injection. Non-treated OHT animals received sterile vehicle intravitreally. As a further control, vehicle was intravitreally injected 7 days after intracameral administration of 10 μl of PBS. Three weeks after bead injections, IOP was 26.7±3.7 mmHg in non-treated OHT eyes compared to 9.9±0.9 mmHg in control eyes.
Example 9. RGC survival by neurosteroids during IOP elevation—In whole mounted retinas, glaucomatous damage was visible as reduced numbers of cells that were positive for NeuN three weeks after microbead injection in non-treated OHT eyes compared with control eyes (FIG. 4J, 4K). […] In sections of optic nerves stained with 2% toluidine blue, axonal loss was detected 3 weeks after microbead injection in non-treated OHT eyes compared with control eyes (FIG. 4O, 4p). […]

Structure (SMILES) | RGC Survival (number of NeuN-positive cells), Average ([1]; Average of 5) | RGC Survival (number of NeuN-positive cells), individual areas 1-5 [1] | Density of axons in ONs, individual 1-5 (optic nerve axons)
CC(=O)[C@H]1CC[C@H]2[C@@H]3CC[C@H]4C[C@H](O)CC[C@]4(C)[C@H]3CC[C@]12C [AlloP, allopregnanolone] | 2084.0 per square millimeter | 2220 per square millimeter and 2240 per square millimeter and 1860 per square millimeter and 2260 per square millimeter and 1840 per square millimeter | 33 Axons × 10000/square mm (2×) and 27 Axons × 10000/square mm and 32 Axons × 10000/square mm and 29 Axons × 10000/square mm
CC(=O)[C@@H]1CC[C@@H]2[C@H]3CC[C@@H]4C[C@@H](O)CC[C@@]4(C)[C@@H]3CC[C@]21C [ent-AlloP, ent-allopregnanolone] | – | 2120 per square millimeter and 2280 per square millimeter and 2000 per square millimeter and 1840 per square millimeter and 1860 per square millimeter | 31 Axons × 10000/square mm and 33 Axons × 10000/square mm and 32 Axons × 10000/square mm and 29 Axons × 10000/square mm and 27 Axons × 10000/square mm
